From US20130178523A1, “ANTI-CANCER COMPOSITIONS AND METHODS” (THE PENN STATE RESEARCH FOUNDATION, priority 2007, published 2013) come the findings set out here.

Some results are limits rather than exact numbers.

One series concerns T-98-G. The series can be described thus: MTS assay, glioblastoma cells. Conditions: Homo sapiens, T98G, 24 h. In general terms: Tetrazolium assays rely on reduction of a dye to a coloured formazan, in cell work by metabolically active cells.
Another series deals with HT-1080. In words: MTS assay, fibrosarcoma cells. The following applies: Homo sapiens, HT-1080, 24 h.
The subject of another series is Caco-2. In words: MTS assay, colon cancer cells. The following applies: Homo sapiens, Caco-2, 24 h.
Another series concerns MDA-MB-231. In words: MTS assay, breast cancer cells. The following applies: Homo sapiens, MDA-MB-231, 24 h.
For the next series, the system named is WM115 melanoma cells. In words: MTS cell viability assay, WM115. Conditions: Homo sapiens, WM-115, 24 h.
The test system of a further series is PC-3. In words: MTS assay, prostate cancer cells. Conditions: Homo sapiens, PC-3, 24 h.
In series [1] the test system is 1205 Lu melanoma cells. In words: MTS cell viability assay, 1205 Lu. The following applies: Homo sapiens, 24 h.
The test system of series [2] is UACC 903 melanoma cells. In words: MTS cell viability assay, UACC 903. Conditions: Homo sapiens, UACC-903, 24 h.
For series [3], the system named is UACC 903 melanoma cells. In words: Tumor development in nude mice, subcutaneous UACC 903, i.p. treatment. Conditions: for melanoma tumor volume: 0.76 μmoles (3 ppm selenium) i.p. thrice per week, day 24, doses 3× lower than isothiocyanates; for tumor burden: UACC 903.
In series [4] the test system is UACC 903 cells. The series can be described thus: BrdU ELISA cellular proliferation. In kind it is cell-based, human. The following applies: 24 hours; for proliferative potential with increasing concentrations: 5, 10, 15 μM. How it is done:
Proliferation rate is measured using a BrdU ELISA kit (Roche Applied Sciences, Indianapolis, Ind.).
BrdUrd is used to label cells for 4-6 hours. At 15 μM concentration, ISC-4 and ISC-6 reduced UACC 903 cellular proliferative potential by ˜80-90% compared to controls. Results represent the average of 3 independent experiments; bars represent SEM. The average value is represented as the percentage of control DMSO treated cells.

Series [5] relates to UACC 903 cells. In words: Apo-ONE caspase-3/7 apoptosis assay. In kind it is cell-based, human. The following applies: 24 hours; for cellular apoptosis with increasing concentrations (caspase-3/7 activity, words): 5, 10, 15 μM. The protocol:
Apoptosis rates are measured using an Apo-ONE Homogenous caspase-3/7 Assay kit (Promega Corporation, Madison, Wis.).
The isoselenocyanate compounds promote apoptosis in melanoma cells. […] The graphs in FIGS. 3A and 3B show fold increase in caspase-3/7 activity relative to DMSO vehicle treated cells on the x-axis. Results represent average of 3 independent experiments. Bars indicate SEM.

Series [6] relates to UACC 903 cells. The series can be described thus: Cell cycle analysis (propidium iodide, FACScan). The following applies: 24 hours.
A further series deals with Akt signaling pathway. In words: Western blot of Akt signaling pathway in cultured melanoma cells (FIG. 9). The following applies: 24 hours. On the technique in general: Immunoblotting shows a protein as a band on a membrane.
Series [7] has as its system 1205 Lu melanoma cells. The series can be described thus: Tumor development in nude mice, subcutaneous 1205 Lu, i.p. treatment. In kind it is in vivo. The following applies: 0.76 μmoles i.p. thrice per week. The source says:
(Monday, Wednesday and Friday).

Series [8] can be described thus: Toxicity assessments in nude mice (blood parameters, histology). In kind it is in vivo. The text has this: Animals are sacrificed by CO2 asphyxiation and blood collected from each animal in plasma separator tubes with lithium heparin (BD Microtainer, BD, Franklin Lakes, N.J.) following cardiac puncture and analyzed for AST (aspartate aminotransferase), ALT, (alanyl aminotransferase), alkaline phosphatase, glucose and creatinine to ascertain liver, heart, kidney and pancreas related toxicity. For morphological examination of blood cells, whole blood is collected in microtainer tubes containing K2EDTA (BD Microtainer, BD, Franklin Lakes, N.J.) and RBC, WBC, lymphocytes, monocytes, eosinophils, platelets, total hemoglobin and hematocrit percentage analyzed. Blood is also microscopically examined for segregates, polychromatin bodies, and smudge cells. A portion of liver, heart, kidney, spleen, intestine pancreas and adrenal from each animal is formalin fixed and paraffin-embedded to examine toxicity-related changes in cell or organ morphology by H&E staining.

Setting [9] is: 0.76 μmoles i.p. thrice per week.

Regarding `S=C=NCc1ccccc1` [BITC, Benzyl isothiocyanate, reference compound], the 50% inhibitory concentration (IC50) with T-98-G was > 100 µM; in the series with HT-1080 it was > 50 µM; in the series on Caco-2, 15 ± 2 µM; with MDA-MB-231, 42 ± 3 µM; in the series on WM115 melanoma cells it was 13 µM; with PC-3, > 50 µM. For the same compound, the 50% inhibitory concentration (IC50) is > 25 µM in the series on 1205 Lu melanoma cells [1] and 15 µM with UACC 903 melanoma cells [2]. For the same compound, in the series with UACC 903 melanoma cells [3] (2.5 micromoles i.p. thrice per week, FIG. 18C), the “effect on tumor size” value was “most effective”.
`[Se]=C=NCc1ccccc1` [ISC-1, Benzyl Isoselenocyanate]: the IC50 with T-98-G is 43 ± 4 µM; with HT-1080 it was 13 ± 3 µM; with Caco-2 it was 13 ± 3 µM; in the series with MDA-MB-231, 29 ± 2 µM; in the series with WM115 melanoma cells, > 25 µM; in the series with PC-3, 24 ± 1 µM. The results for the IC50 in the series on 1205 Lu melanoma cells [1] and in the series with UACC 903 melanoma cells [2] were > 25 µM and 16 µM, respectively. Moreover, the “effect on tumor size” value in the series with UACC 903 melanoma cells [3] (0.76 μmoles i.p. thrice per week, Example 30) is listed as “failed to show any effect”.
With `[Se]=C=NCCc1ccccc1` [ISC-2, Phenylethyl Isoselenocyanate], the 50% inhibitory concentration (IC50) with T-98-G was found to be 24 ± 1 µM; in the series with HT-1080 it was 12 ± 3 µM; in the series with Caco-2, 11 ± 1 µM; in the series on MDA-MB-231 it was 20 ± 3 µM; with WM115 melanoma cells it was 8 µM; in the series with PC-3 it was 16 ± 1 µM. Besides, the results for the 50% inhibitory concentration (IC50) with 1205 Lu melanoma cells [1] and in the series on UACC 903 melanoma cells [2] were 18 µM and 12 µM, respectively. For the same compound, the “melanoma tumor volume” value in the series on UACC 903 melanoma cells [3] is reported as “reduce tumor volume”.
As to `[Se]=C=NCCCCCCc1ccccc1` [ISC-6, Phenylhexyl Isoselenocyanate], the “proliferative potential with increasing concentrations” value with UACC 903 cells [4] is reported as “decreased proliferative potential”. Moreover, the “fold more effective than PBITC or PHITC at inhibiting cellular proliferation” value with UACC 903 cells [4] (5-15 μM) is reported as ~2 fold. Moreover, the “cellular apoptosis with increasing concentrations (caspase-3/7 activity, words)” value with UACC 903 cells [5] is on record as “increase cellular apoptosis”. Moreover, in the series on UACC 903 cells [5] (caspase-3/7 activity, 5-15 μM), the “fold more effective than PBITC at inducing apoptosis” value is ~2 fold. In addition, the concentration for half-maximal inhibition (IC50) in the series with T-98-G worked out at 23 ± 2 µM; in the series on HT-1080 it was 12 ± 1 µM; in the series on Caco-2, 10 ± 1 µM; in the series on MDA-MB-231 it was 22 ± 2 µM; with WM115 melanoma cells it was 7 µM; in the series with PC-3, 14 ± 1 µM. In addition, the IC50 with 1205 Lu melanoma cells [1] worked out at 7 µM; in the series with UACC 903 melanoma cells [2], 10 ± 1 µM. In addition, the G0/G1 cell population in the series on UACC 903 cells [6] (5 μM) was found to be 56.8; with UACC 903 cells [6] (10 μM) it was 44.9; in the series on UACC 903 cells [6] (15 μM), 41.6. The G2/M cell population is 13.5 in the series on UACC 903 cells [6] (5 μM), 24.5 in the series with UACC 903 cells [6] (10 μM) and 26.1 with UACC 903 cells [6] (15 μM). The values for the S cell population with UACC 903 cells [6] (5 μM), in the series on UACC 903 cells [6] (10 μM) and in the series on UACC 903 cells [6] (15 μM) were 31.5, 30.5 and 32.2, respectively. Besides, the subG0/G1 cell population with UACC 903 cells [6] (5 μM) came to 1.5; in the series on UACC 903 cells [6] (10 μM), 7.6; with UACC 903 cells [6] (15 μM) it was 15.9. For the same compound, the “melanoma tumor volume” value in the series on UACC 903 melanoma cells [3] is listed as “reduce tumor volume”. Also, in the series with Akt signaling pathway, the “concentration completely inhibiting the Akt3 pathway (Western blot)” value was determined as 10 µM.
In the case of `S=C=NCCCCc1ccccc1` [PBITC, phenylbutylisothiocyanate, reference compound], in the series on UACC 903 cells [4], the “proliferative potential with increasing concentrations” value is “decreased proliferative potential”. Besides, the “cellular apoptosis with increasing concentrations (caspase-3/7 activity, words)” value in the series on UACC 903 cells [5] is recorded as “increase cellular apoptosis”. Further, the “tumor burden” value in the series on 1205 Lu melanoma cells [7] and in the series with UACC 903 melanoma cells [3] (setting [9]) was “ineffective at reducing tumor burden” in each case. Moreover, the “blood SGOT, SGPT, alkaline phosphatase, glucose and creatinine” value in series [8] (0.76 μmoles i.p. 3 times per week for 3 weeks, compared to vehicle DMSO) is given as “did not alter parameters”. Besides, the “basal urea nitrogen (BUN), creatinine and glucose levels” value in series [8] (treated versus control animals) is listed as “not significantly different”. Also, the IC50 with T-98-G was found to be 35 ± 1 µM; in the series with HT-1080, 15 ± 1 µM; in the series on Caco-2, 27 ± 2 µM; with MDA-MB-231 it was 27 ± 2 µM; in the series with WM115 melanoma cells, 7 ± 1 µM; with PC-3 it was 24 ± 2 µM. Besides, the IC50 worked out at 19 ± 5 µM with 1205 Lu melanoma cells [1] and 15 ± 1 µM in the series with UACC 903 melanoma cells [2]. Besides, the values for the G0/G1 cell population in the series on UACC 903 cells [6] (5 μM), with UACC 903 cells [6] (10 μM) and in the series on UACC 903 cells [6] (15 μM) were 37.4, 37.2 and 42.1, respectively. The G2/M cell population came out at 34.7 in the series with UACC 903 cells [6] (5 μM), 31.9 in the series on UACC 903 cells [6] (10 μM) and 27.4 with UACC 903 cells [6] (15 μM). Also, the S cell population in the series on UACC 903 cells [6] (5 μM) was found to be 27.8; in the series on UACC 903 cells [6] (10 μM) it was 30.9; with UACC 903 cells [6] (15 μM), 30.5. For the same compound, the values for the subG0/G1 cell population in the series with UACC 903 cells [6] (5 μM), with UACC 903 cells [6] (10 μM) and in the series with UACC 903 cells [6] (15 μM) were 4.9, 10.4 and 20.8, respectively.
For `S=C=NCCc1ccccc1` [PEITC, phenylethyl isothiocyanate, reference compound], the half-maximal inhibitory concentration (IC50) was > 100 µM in the series with T-98-G; 15 ± 1 µM in the series on HT-1080; 14 ± 2 µM with Caco-2; 38 ± 6 µM with MDA-MB-231; 12 ± 1 µM in the series with WM115 melanoma cells; 24 ± 2 µM in the series on PC-3. For the same compound, the IC50 in the series with 1205 Lu melanoma cells [1] was determined as 24 ± 2 µM; with UACC 903 melanoma cells [2] it was 12 ± 1 µM.
Consider `S=C=NCCCCCCc1ccccc1` [PHITC, Phenylhexylisothiocyanate], for which the “proliferative potential with increasing concentrations” value in the series with UACC 903 cells [4] is reported as “decreased proliferative potential”. In addition, the “cellular apoptosis with increasing concentrations (caspase-3/7 activity, words)” value with UACC 903 cells [5] is on record as “increase cellular apoptosis”. For the same compound, the “tumor burden” value with 1205 Lu melanoma cells [7] and with UACC 903 melanoma cells [3] (setting [9]) was “ineffective at reducing tumor burden” throughout. Also, the IC50 is 26 ± 2 µM with T-98-G; 29 ± 3 µM with HT-1080; 49 ± 9 µM with Caco-2; 24 ± 2 µM in the series with MDA-MB-231; 8 ± 1 µM in the series with WM115 melanoma cells; 17 ± 1 µM in the series on PC-3. Further, the IC50 in the series with 1205 Lu melanoma cells [1] is 11 ± 4 µM; in the series with UACC 903 melanoma cells [2], 15 ± 2 µM. The results for the G0/G1 cell population with UACC 903 cells [6] (5 μM), in the series on UACC 903 cells [6] (10 μM) and with UACC 903 cells [6] (15 μM) were 58.7, 43.8 and 40.7, respectively. For the same compound, the results for the G2/M cell population in the series with UACC 903 cells [6] (5 μM), in the series with UACC 903 cells [6] (10 μM) and in the series with UACC 903 cells [6] (15 μM) were 13.1, 27.5 and 29.7, respectively. The S cell population in the series on UACC 903 cells [6] (5 μM) was found to be 28.2; with UACC 903 cells [6] (10 μM) it was 28.7; in the series with UACC 903 cells [6] (15 μM), 29.6. Further, the subG0/G1 cell population was found to be 1.4 in the series on UACC 903 cells [6] (5 μM), 5.4 in the series on UACC 903 cells [6] (10 μM) and 12.5 in the series on UACC 903 cells [6] (15 μM).
In the series with UACC 903 cells [6] (15 μM), `N#C[Se]CCCCCCc1ccccc1` [PHSC, Phenylhexyl selenocyanate] came in with a G0/G1 cell population of 61.4, a G2/M cell population of 11.5, a S cell population of 26.9 and a subG0/G1 cell population of 2.4.

One may read the IC50 as the concentration needed to halve the response being measured. Low values mean greater potency in that assay, high ones weaker potency in that assay.
